Our source for the EC50 and Inhibition values is ChEMBL document CHEMBL1121805, “Nucleosides containing chemically reactive groups” (1981).

One may read the Inhibition as the drop in the measured response relative to a control, in per cent. Higher therefore signals strong suppression.

Assay [1] concerns L1210. In words: Cytotoxicity was evaluated against the L1210 cell lines in vitro. The class given is functional. As to conditions: Mus musculus, read-out: ED50 (the source's name).
Assay [2] relates to L1210. Nature of the assay: Percent inhibition of incorporation of [5-3H]-Uridine into DNA of L1210 cells. The format is functional, Mus musculus.
Assay [3] concerns L1210. In words: Percent inhibition of incorporation of [Me-3H]-Thymidine into DNA of L1210 cells. The class given is functional, Mus musculus.
Assay [4] concerns L1210. Nature of the assay: Percent inhibition of incorporation of [8-14C]-Adenine into DNA of L1210 cells. The class given is functional, Mus musculus.

As to `O=C(CBr)NC[C@H]1OC(n2cnc3c(O)ncnc32)[C@H](O)[C@@H]1O` (some centres undefined), in assay [1], the EC50 was below 5 µg/mL.

For `Cc1cn(C2CC(O)C(CCNC(=O)CBr)O2)c(=O)[nH]c1=O` (centres undefined), the Inhibition stood at 60% in assay [2], 52% in assay [3] and 67% in assay [4].
